Measured values reported in ChEMBL document CHEMBL1157339, “Sundaicumones A and B, polyprenylated acylphloroglucinol derivatives from Calophyllumsundaicum with weak activity against the glucocorticoid receptor” (J Nat Prod, 2006).

Target: T1, Glucocorticoid receptor (Homo sapiens, UniProt P04150)
T1 sequence (P04150 whole entry): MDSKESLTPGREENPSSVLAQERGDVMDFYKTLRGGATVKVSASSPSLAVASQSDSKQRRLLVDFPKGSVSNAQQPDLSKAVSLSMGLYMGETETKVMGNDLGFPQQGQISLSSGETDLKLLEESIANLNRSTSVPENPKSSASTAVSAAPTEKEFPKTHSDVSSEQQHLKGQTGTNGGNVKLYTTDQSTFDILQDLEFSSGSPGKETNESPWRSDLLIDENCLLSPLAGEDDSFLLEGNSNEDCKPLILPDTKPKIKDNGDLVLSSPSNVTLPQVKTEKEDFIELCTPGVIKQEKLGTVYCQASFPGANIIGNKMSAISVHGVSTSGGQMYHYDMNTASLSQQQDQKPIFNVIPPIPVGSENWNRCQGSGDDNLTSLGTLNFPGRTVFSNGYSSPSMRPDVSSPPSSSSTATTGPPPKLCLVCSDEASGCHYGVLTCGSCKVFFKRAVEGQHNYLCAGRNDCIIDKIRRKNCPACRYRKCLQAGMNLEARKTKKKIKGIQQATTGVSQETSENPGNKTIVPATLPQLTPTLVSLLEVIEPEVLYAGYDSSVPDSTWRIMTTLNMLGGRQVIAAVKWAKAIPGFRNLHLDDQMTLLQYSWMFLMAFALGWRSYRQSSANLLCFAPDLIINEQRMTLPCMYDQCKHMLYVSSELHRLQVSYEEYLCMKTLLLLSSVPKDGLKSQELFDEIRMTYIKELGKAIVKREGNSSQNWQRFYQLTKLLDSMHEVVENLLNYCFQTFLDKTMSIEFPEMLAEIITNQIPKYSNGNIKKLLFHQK
Assay: Activity at glucocorticoid receptor in human A549 cells assessed as effect on GRE promoter response by luciferase reporter assay
Format: cell-based

Compound	EC50
CCCC(CC(=O)O)C1=C2O[C@H](C(C)(C)O)C[C@@]23C[C@H](CC=C(C)C)C(C)(C)[C@@](C(=O)C(C)CC)(C1=O)C3=O (some centres not stated) [SUNDAICUMONE B]	75 µM
CCCC(CC(=O)O)C1=C2O[C@H](C(C)(C)O)C[C@@]23C[C@H](CC(O)C(C)(C)O)C(C)(C)[C@@](C(=O)C(C)CC)(C1=O)C3=O (some centres not stated) [SUNDAICUMONE A]	173 µM
